What was measured:
Experiment in all cases: biochemical
Type in all cases: binding
panel of 442 kinases [1] = target: T1, panel of 442 kinases (Homo sapiens, UniProt O14578); details: CIT; for remaining activity at 1 µM: read-out: % of control at 1 µM
T1 construct: purchased Ambit Biosciences (scanMAXX KINOMEscan)

panel of 442 kinases [2] = target: T2, panel of 442 kinases (Homo sapiens, UniProt O15530); details: kinase PDPK1; for remaining activity at 1 µM: read-out: % of control at 1 µM
T2 construct: purchased Ambit Biosciences (scanMAXX KINOMEscan)
T2 sequence (O15530 1-556): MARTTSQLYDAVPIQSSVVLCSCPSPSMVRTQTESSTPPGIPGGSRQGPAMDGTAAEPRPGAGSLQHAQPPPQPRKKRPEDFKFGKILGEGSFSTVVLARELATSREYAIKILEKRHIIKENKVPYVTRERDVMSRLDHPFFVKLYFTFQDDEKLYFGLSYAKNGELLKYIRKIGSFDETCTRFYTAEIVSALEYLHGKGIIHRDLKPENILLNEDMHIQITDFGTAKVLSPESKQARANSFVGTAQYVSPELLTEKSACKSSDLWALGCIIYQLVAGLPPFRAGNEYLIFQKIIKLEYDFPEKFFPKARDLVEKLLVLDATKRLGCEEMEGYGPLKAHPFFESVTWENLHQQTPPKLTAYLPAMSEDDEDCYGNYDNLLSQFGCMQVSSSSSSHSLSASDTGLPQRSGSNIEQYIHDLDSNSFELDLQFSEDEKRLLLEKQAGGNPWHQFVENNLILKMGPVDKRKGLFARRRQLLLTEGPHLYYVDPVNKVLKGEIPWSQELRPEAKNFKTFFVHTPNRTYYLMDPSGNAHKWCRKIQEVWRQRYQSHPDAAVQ

panel of 442 kinases [3] = target: T3, panel of 442 kinases (Homo sapiens, UniProt P00519, M351T); details: ABL1(M351T)-phosphorylated; for remaining activity at 1 µM: read-out: % of control at 1 µM
T3 construct: purchased Ambit Biosciences (scanMAXX KINOMEscan)

panel of 442 kinases [4] = target: T4, panel of 442 kinases (Homo sapiens, UniProt P00533, DEL746-750); details: EGFR(E746-A750del); for remaining activity at 1 µM: read-out: % of control at 1 µM
T4 construct: purchased Ambit Biosciences (scanMAXX KINOMEscan)

panel of 442 kinases [5] = target: T5, panel of 442 kinases (Homo sapiens, UniProt P04049); details: kinase RAF1; for remaining activity at 1 µM: read-out: RAF1 (% of control at 1 µM)
T5 construct: purchased Ambit Biosciences (scanMAXX KINOMEscan)

panel of 442 kinases [6] = target: T6, panel of 442 kinases (Homo sapiens, UniProt P19525); details: kinase PRKR; for remaining activity at 1 µM: read-out: PRKR (% of control at 1 µM)
T6 construct: purchased Ambit Biosciences (scanMAXX KINOMEscan)

panel of 442 kinases [7] = target: T7, panel of 442 kinases (Homo sapiens, UniProt P41240); details: CSK; for remaining activity at 1 µM: read-out: % of control at 1 µM
T7 construct: purchased Ambit Biosciences (scanMAXX KINOMEscan)

panel of 442 kinases [8] = target: T8, panel of 442 kinases (Homo sapiens, UniProt P48729); details: CSNK1A1; for remaining activity at 1 µM: read-out: % of control at 1 µM
T8 construct: purchased Ambit Biosciences (scanMAXX KINOMEscan)

panel of 442 kinases [9] = target: T9, panel of 442 kinases (Homo sapiens, UniProt P51812); details: kinase RSK2(Kin.Dom.1-N-terminal); for remaining activity at 1 µM: read-out: RSK2(Kin.Dom.1-N-terminal) (% of control at 1 µM)
T9 construct: purchased Ambit Biosciences (scanMAXX KINOMEscan)

panel of 442 kinases [10] = target: T10, panel of 442 kinases (Homo sapiens, UniProt Q13464); details: kinase ROCK1; for remaining activity at 1 µM: read-out: ROCK1 (% of control at 1 µM)
T10 construct: purchased Ambit Biosciences (scanMAXX KINOMEscan)

panel of 442 kinases [11] = target: T11, panel of 442 kinases (Homo sapiens, UniProt Q9H093); details: kinase SNARK; for remaining activity at 1 µM: read-out: SNARK (% of control at 1 µM)
T11 construct: purchased Ambit Biosciences (scanMAXX KINOMEscan)
T11 sequence (Q9H093 1-628): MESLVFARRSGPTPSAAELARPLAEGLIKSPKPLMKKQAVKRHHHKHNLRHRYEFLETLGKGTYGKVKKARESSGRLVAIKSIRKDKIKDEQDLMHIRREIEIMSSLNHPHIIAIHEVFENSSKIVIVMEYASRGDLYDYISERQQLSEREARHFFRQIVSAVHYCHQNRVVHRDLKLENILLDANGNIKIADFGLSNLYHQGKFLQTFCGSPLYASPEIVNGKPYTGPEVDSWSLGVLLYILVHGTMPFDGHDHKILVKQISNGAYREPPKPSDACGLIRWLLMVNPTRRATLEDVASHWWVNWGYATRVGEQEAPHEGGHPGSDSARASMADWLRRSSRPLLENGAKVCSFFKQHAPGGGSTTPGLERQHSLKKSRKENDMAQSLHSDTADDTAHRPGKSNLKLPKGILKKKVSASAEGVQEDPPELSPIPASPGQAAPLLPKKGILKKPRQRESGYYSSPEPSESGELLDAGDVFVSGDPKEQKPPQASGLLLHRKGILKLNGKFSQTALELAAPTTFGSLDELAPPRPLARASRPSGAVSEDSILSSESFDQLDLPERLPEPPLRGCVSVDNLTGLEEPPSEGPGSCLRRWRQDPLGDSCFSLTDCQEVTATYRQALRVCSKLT

panel of 442 kinases [12] = target: T12, panel of 442 kinases (Homo sapiens, UniProt Q9UBE8); details: kinase NLK; for remaining activity at 1 µM: read-out: % of control at 1 µM
T12 construct: purchased Ambit Biosciences (scanMAXX KINOMEscan)
T12 sequence (Q9UBE8 1-527): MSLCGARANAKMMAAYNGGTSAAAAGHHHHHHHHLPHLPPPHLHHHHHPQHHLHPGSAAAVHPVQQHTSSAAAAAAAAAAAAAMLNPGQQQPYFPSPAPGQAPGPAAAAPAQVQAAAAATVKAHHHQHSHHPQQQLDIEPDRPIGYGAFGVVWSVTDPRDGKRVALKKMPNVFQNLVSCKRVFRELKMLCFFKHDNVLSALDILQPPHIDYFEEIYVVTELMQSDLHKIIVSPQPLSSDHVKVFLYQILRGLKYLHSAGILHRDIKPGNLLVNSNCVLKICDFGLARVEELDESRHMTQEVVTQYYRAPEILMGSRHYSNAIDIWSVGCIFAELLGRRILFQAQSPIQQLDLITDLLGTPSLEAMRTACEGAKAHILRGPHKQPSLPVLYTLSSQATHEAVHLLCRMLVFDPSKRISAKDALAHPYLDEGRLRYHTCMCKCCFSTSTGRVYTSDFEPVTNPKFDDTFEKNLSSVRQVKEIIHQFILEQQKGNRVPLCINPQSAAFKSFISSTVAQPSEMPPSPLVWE

[13] = 10 µM, read-out: % of control at 10 µM

T6 sequence (P19525 whole entry): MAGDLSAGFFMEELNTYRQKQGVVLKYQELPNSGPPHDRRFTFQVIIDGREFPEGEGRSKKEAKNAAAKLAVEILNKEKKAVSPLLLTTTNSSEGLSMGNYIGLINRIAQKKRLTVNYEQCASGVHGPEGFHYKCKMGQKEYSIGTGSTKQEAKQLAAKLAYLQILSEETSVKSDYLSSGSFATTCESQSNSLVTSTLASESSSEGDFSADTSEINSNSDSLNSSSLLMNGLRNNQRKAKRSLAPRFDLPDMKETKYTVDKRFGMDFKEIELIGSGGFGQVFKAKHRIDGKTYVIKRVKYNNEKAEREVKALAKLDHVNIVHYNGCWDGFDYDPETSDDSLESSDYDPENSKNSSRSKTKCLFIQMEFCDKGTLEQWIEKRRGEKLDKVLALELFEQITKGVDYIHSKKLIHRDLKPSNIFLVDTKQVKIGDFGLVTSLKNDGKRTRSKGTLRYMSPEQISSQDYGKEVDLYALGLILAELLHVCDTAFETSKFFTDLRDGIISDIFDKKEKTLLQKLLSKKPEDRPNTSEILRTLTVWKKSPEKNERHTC
T7 sequence (P41240 whole entry): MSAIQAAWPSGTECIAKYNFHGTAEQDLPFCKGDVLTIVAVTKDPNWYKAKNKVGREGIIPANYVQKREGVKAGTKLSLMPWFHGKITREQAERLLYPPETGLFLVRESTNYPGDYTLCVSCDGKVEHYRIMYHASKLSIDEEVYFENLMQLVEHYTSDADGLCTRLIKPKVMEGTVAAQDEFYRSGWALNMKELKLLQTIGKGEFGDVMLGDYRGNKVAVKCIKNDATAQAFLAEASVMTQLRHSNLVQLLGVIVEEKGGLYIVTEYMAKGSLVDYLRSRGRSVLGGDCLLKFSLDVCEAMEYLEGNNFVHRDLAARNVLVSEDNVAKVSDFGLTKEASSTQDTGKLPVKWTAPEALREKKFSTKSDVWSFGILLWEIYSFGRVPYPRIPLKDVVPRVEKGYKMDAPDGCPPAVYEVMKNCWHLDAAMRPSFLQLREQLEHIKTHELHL
T5 sequence (P04049 whole entry): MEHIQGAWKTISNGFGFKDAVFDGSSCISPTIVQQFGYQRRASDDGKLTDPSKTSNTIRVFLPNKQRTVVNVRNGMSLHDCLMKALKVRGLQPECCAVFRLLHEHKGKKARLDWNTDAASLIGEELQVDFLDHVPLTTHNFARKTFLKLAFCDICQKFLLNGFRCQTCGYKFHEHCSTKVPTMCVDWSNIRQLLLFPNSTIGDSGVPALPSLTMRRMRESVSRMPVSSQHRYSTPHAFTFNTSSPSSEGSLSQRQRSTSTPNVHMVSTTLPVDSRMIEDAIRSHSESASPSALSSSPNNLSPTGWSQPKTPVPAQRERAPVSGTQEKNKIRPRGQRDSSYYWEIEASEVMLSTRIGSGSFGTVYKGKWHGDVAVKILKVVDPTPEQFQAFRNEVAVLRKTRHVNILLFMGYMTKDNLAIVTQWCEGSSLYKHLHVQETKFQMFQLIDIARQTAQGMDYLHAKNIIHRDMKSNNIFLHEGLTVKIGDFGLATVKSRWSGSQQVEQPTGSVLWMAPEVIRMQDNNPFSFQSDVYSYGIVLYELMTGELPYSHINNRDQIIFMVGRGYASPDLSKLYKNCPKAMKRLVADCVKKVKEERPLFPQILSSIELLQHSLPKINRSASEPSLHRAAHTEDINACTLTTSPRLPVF
T9 sequence (P51812 whole entry): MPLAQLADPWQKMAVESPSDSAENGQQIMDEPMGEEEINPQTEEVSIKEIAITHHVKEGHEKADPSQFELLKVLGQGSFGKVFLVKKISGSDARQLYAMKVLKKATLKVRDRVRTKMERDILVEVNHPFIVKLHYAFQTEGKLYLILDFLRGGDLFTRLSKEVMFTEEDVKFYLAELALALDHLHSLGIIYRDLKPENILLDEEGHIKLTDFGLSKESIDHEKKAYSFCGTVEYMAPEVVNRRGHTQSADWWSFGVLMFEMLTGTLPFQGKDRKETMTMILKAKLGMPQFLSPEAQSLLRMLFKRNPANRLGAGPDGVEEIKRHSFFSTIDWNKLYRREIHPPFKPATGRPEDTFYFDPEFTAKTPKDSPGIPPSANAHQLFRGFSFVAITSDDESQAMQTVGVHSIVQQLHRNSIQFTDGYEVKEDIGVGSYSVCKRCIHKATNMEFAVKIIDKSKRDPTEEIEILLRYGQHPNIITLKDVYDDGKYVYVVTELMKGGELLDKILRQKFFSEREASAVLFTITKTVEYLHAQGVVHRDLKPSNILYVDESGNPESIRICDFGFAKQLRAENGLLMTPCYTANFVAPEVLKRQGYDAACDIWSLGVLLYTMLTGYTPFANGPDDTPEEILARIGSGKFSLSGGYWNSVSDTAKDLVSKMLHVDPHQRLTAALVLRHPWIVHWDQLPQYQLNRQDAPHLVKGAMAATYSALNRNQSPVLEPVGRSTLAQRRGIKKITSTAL
T1 sequence (O14578 whole entry): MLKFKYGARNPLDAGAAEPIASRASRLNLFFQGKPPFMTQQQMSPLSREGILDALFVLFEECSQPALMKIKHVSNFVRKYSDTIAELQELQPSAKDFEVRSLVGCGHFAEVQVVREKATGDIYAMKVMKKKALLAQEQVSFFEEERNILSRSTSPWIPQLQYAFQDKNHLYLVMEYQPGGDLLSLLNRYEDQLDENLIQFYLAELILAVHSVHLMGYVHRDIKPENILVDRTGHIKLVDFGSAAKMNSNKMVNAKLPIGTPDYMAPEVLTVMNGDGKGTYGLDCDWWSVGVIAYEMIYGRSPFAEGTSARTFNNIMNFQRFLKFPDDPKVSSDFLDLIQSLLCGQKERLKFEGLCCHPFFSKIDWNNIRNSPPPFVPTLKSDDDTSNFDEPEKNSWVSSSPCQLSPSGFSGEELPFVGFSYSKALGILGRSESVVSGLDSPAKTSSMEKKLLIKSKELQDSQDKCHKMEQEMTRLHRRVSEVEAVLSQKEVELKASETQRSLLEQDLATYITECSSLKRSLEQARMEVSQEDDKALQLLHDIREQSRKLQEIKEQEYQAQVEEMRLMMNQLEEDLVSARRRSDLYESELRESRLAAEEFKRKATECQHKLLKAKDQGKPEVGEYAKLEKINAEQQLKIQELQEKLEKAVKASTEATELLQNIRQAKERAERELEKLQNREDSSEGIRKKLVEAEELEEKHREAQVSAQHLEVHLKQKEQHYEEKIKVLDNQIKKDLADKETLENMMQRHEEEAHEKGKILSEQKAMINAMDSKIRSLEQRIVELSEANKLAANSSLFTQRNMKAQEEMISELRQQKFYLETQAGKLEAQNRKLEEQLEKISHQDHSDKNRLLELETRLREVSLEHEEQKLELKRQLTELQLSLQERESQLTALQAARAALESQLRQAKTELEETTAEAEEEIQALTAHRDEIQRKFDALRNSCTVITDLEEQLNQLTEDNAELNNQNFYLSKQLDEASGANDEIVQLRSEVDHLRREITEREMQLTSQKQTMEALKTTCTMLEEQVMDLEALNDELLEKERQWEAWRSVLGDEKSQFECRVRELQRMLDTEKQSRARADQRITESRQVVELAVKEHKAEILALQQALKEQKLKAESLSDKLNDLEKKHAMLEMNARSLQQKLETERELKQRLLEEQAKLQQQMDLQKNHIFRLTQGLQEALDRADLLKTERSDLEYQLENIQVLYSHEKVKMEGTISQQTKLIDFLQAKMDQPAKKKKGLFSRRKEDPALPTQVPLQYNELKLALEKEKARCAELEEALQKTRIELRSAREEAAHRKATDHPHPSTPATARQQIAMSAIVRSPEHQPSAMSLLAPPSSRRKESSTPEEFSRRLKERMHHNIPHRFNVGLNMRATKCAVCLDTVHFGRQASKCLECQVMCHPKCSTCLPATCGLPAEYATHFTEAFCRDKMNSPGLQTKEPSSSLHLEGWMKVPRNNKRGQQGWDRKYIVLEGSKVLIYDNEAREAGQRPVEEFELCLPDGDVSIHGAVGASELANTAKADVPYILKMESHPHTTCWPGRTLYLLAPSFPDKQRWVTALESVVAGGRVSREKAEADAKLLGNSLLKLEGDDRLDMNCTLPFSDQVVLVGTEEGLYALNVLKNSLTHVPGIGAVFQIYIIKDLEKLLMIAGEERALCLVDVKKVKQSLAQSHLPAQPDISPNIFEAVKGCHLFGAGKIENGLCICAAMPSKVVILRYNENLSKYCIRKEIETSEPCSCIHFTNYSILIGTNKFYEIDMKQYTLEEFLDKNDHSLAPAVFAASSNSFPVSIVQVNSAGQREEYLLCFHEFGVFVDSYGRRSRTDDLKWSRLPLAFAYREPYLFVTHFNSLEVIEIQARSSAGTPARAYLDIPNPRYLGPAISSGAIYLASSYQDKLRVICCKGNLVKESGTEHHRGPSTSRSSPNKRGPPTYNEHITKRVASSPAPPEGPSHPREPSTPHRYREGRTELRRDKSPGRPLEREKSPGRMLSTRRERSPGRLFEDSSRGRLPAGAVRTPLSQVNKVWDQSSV
T8 sequence (P48729 whole entry): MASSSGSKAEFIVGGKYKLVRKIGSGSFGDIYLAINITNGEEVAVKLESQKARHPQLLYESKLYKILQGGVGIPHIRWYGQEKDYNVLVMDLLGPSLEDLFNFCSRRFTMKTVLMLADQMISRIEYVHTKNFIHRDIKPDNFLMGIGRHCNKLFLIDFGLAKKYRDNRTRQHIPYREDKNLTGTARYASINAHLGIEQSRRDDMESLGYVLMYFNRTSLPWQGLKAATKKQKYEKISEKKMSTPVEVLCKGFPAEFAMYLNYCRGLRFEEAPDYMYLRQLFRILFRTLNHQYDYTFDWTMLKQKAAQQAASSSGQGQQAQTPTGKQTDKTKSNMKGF

SMILES	remaining activity at 1 µM (panel of 442 kinases [1])	remaining activity at 1 µM (panel of 442 kinases [2])	remaining activity at 1 µM (panel of 442 kinases [3])	remaining activity at 1 µM (panel of 442 kinases [4])	remaining activity at 1 µM (panel of 442 kinases [5])	remaining activity at 1 µM (panel of 442 kinases [6])	remaining activity at 1 µM (panel of 442 kinases [7])	remaining activity at 1 µM (panel of 442 kinases [8])	remaining activity at 1 µM (panel of 442 kinases [9])	remaining activity at 1 µM (panel of 442 kinases [10])	remaining activity at 1 µM (panel of 442 kinases [11])	remaining activity at 1 µM (panel of 442 kinases [12])	other results
Nc1cc(C(F)(F)F)c(-c2cc(N3CCOCC3)nc(N3CCOCC3)n2)cn1 [Buparlisib]	100%	89%	90%	100%	100%	88%	94%	88%	99%	86%	100%	93%	remaining activity at 10 µM (panel of 442 kinases [1]; [13]): 100%; remaining activity at 10 µM (panel of 442 kinases [2]; [13]): 100%; remaining activity at 10 µM (panel of 442 kinases [3]; [13]): 97%; remaining activity at 10 µM (panel of 442 kinases [4]; [13]): 100%; remaining activity at 10 µM (panel of 442 kinases [5]; 10 µM, read-out: RAF1 (% of control at 10 µM)): 100%; remaining activity at 10 µM (panel of 442 kinases [6]; 10 µM, read-out: PRKR (% of control at 10 µM)): 100%; remaining activity at 10 µM (panel of 442 kinases [7]; [13]): 100%; remaining activity at 10 µM (panel of 442 kinases [8]; [13]): 100%; remaining activity at 10 µM (panel of 442 kinases [9]; 10 µM, read-out: RSK2(Kin.Dom.1-N-terminal) (% of control at 10 µM)): 87%; remaining activity at 10 µM (panel of 442 kinases [10]; 10 µM, read-out: ROCK1 (% of control at 10 µM)): 80%; remaining activity at 10 µM (panel of 442 kinases [11]; 10 µM, read-out: SNARK (% of control at 10 µM)): 100%; remaining activity at 10 µM (panel of 442 kinases [12]; [13]): 100%
COc1ncc(-c2ccc3nccc(-c4ccnnc4)c3c2)cc1NS(=O)(=O)c1ccc(F)cc1F [Omipalisib]	100%	96%	94%	97%	100%	84%	98%	100%	62%	88%	100%	95%	–
FC(F)c1nc2ccccc2n1-c1nc(N2CCOCC2)nc(N2CCOCC2)n1 [ZSTK474, 2-(difluoromethyl)-1-[4,6-di(4-morpholinyl)-1,3,5-triazin-2-yl]-1H-benzimidazole]	100%	100%	100%	94%	73%	93%	89%	91%	88%	75%	100%	84%	–
Cn1c(=O)n(-c2ccc(C(C)(C)C#N)cc2)c2c3cc(-c4cnc5ccccc5c4)ccc3ncc21 [Dactolisib, 2-methyl-2-[4-(3-methyl-2-oxo-8-quinolin-3-yl-2,3-dihydroimidazo[4,5-c]quinolin-1-yl)-phenyl] propionitrile]	65%	90%	89%	100%	94%	95%	81%	99%	–	52%	34%	81%	–

Source: PMC5564600 (Oncotarget, 2017)
